Assay results published in PubChem BioAssay AID256 (DTP/NCI, 2004).
Where “and” joins values, the source holds several entries; their conditions need not be identical. Equal values may be shown once. Toxic doses and inconclusive results are not listed.

Tested on: CD2F1 mice, L1210 leukemia ip, survival T/C
Assay: NCI In Vivo Anticancer Drug Screen. Data for tumor model L1210 Leukemia (intraperitoneal) in CD2F1 (CDF1) mice
Conditions: higher = longer survival
Method in brief: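 Mice carrying a transplanted tumor received test compound or vehicle alone. The value is the measurement in the treated group divided by that in the vehicle-treated control group.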

[1] = endpoint: mean survival time, dose: 100.0 mg/kg/injection, schedule: Q01DX001 (ip), vehicle: saline with Tween-80
[2] = endpoint: mean survival time, dose: 200.0 mg/kg/injection, schedule: Q01DX001 (ip), vehicle: saline with Tween-80
[3] = endpoint: mean survival time, dose: 400.0 mg/kg/injection, schedule: Q01DX001 (ip), vehicle: saline with Tween-80
[4] = endpoint: mean survival time, dose: 100.0 mg/kg/injection, schedule: Q01DX009 (ip), vehicle: saline with Tween-80
[5] = endpoint: mean survival time, dose: 100.0 mg/kg/injection, schedule: Q04DX003 (ip), vehicle: saline with Tween-80
[6] = endpoint: mean survival time, dose: 200.0 mg/kg/injection, schedule: Q01DX009 (ip), vehicle: saline with Tween-80
[7] = endpoint: mean survival time, dose: 200.0 mg/kg/injection, schedule: Q04DX003 (ip), vehicle: saline with Tween-80
[8] = endpoint: mean survival time, dose: 400.0 mg/kg/injection, schedule: Q01DX009 (ip), vehicle: saline with Tween-80
[9] = endpoint: mean survival time, dose: 400.0 mg/kg/injection, schedule: Q04DX003 (ip), vehicle: saline with Tween-80
[10] = endpoint: mean survival time, dose: 100.0 mg/kg/injection, schedule: Q01DX001 (ip), vehicle: Klucel (hydroxypropylcellulose) (HPC)
[11] = endpoint: mean survival time, dose: 200.0 mg/kg/injection, schedule: Q01DX001 (ip), vehicle: Klucel (hydroxypropylcellulose) (HPC)
[12] = endpoint: mean survival time, dose: 400.0 mg/kg/injection, schedule: Q01DX001 (ip), vehicle: Klucel (hydroxypropylcellulose) (HPC)
[13] = endpoint: mean survival time, dose: 50.0 mg/kg/injection, schedule: Q01DX009 (ip), vehicle: other
[14] = endpoint: mean survival time, dose: 100.0 mg/kg/injection, schedule: Q01DX009 (ip), vehicle: other
[15] = endpoint: mean survival time, dose: 200.0 mg/kg/injection, schedule: Q01DX009 (ip), vehicle: other
[16] = endpoint: mean survival time, dose: 50.0 mg/kg/injection, schedule: Q01DX009 (ip), vehicle: saline
[17] = endpoint: mean survival time, dose: 100.0 mg/kg/injection, schedule: Q01DX009 (ip), vehicle: saline
[18] = endpoint: mean survival time, dose: 200.0 mg/kg/injection, schedule: Q01DX009 (ip), vehicle: saline
[19] = endpoint: mean survival time, dose: 50.0 mg/kg/injection, schedule: Q01DX009 (ip), vehicle: saline with Tween-80

With `CCCCCCCCCCCCCC(CCCCCCCCCC)CCCCCCCCCC` the T/C [1] was 98 % of control, the T/C [2] was 103 % of control and the T/C [3] was 104 % of control.
`C=CCON` was tested, and the T/C (endpoint: mean survival time, dose: 75.0 mg/kg/injection, schedule: Q01DX001 (ip), vehicle: saline) was 100 % of control.
With `CC1(C)/C(=C/c2ccccc2)C(=O)c2ccccc21` the T/C [4] was 100 % of control, the T/C [5] was 102 % of control and the T/C [6] was 100 % of control. The T/C [7] was 92 % of control, the T/C [8] was 94 % of control and the T/C [9] was 102 % of control.
In the case of `CCOC(=O)C(C(C)=O)C(=O)/C=C/c1ccccc1` (stereo unspecified), the T/C [5] is reported as 98 % of control, the T/C [7] is reported as 103 % of control and the T/C [9] is reported as 97 % of control.
For `C/C=C1/C[C@@H](C)[C@@](C)(O)C(=O)OCC2=CC[N+]3([O-])CC[C@@H](OC1=O)[C@@H]23` (stereo partly specified), the T/C [1] was 103 % of control and the T/C [2] was 97 % of control.
For `N#Cc1nc2c(nc1N)CCCCCCCCCC2`, the T/C [10] was 87 % of control, the T/C [11] was 87 % of control and the T/C [12] was 87 % of control.
`C=CC1CC(=O)N1Cc1ccccc1` (stereo unspecified) was tested, and the T/C [5] was 97 % of control, the T/C [7] was 92 % of control and the T/C [9] was 92 % of control.
In the case of `CC(=O)NNC(=O)c1ccccc1CO`, the T/C (endpoint: mean survival time, dose: 12.5 mg/kg/injection, schedule: Q01DX009 (ip), vehicle: other) is reported as 89 % of control, the T/C (endpoint: mean survival time, dose: 25.0 mg/kg/injection, schedule: Q01DX009 (ip), vehicle: other) is reported as 90 % of control and the T/C [13] is reported as 97 % of control. For the same molecule, the T/C [14] was 94 % of control and the T/C [15] was 101 % of control.
With `ClC(Cl)(Cl)c1nc2nccnc2[nH]1` the T/C (endpoint: mean survival time, dose: 25.0 mg/kg/injection, schedule: Q01DX009 (ip), vehicle: saline sonified) was 100 % of control, the T/C (endpoint: mean survival time, dose: 50.0 mg/kg/injection, schedule: Q01DX009 (ip), vehicle: saline sonified) was 104 % of control and the T/C (endpoint: mean survival time, dose: 100.0 mg/kg/injection, schedule: Q01DX009 (ip), vehicle: saline sonified) was 94 % of control.
With `O=[N+]([O-])c1ccc(C2C3C(c4ccccc4)=NCCCN32)cc1` (stereo unspecified) the T/C [5] was 104 % of control, the T/C [7] was 97 % of control and the T/C [9] was 97 % of control.
With `CCCC(=O)Nc1ncnc2c1ncn2C1OC2COP(=O)(O)OC2C1OC(=O)CCC` (stereo unspecified) the T/C (endpoint: mean survival time, dose: 12.5 mg/kg/injection, schedule: Q01DX009 (ip), vehicle: saline) was 109 % of control, the T/C (endpoint: mean survival time, dose: 12.5 mg/kg/injection, schedule: Q01DX009 (ip), vehicle: suspension in saline) was 98 % of control and the T/C (endpoint: mean survival time, dose: 25.0 mg/kg/injection, schedule: Q01DX009 (ip), vehicle: saline) was 97 % of control. The T/C (endpoint: mean survival time, dose: 25.0 mg/kg/injection, schedule: Q01DX009 (ip), vehicle: suspension in saline) was 100 % of control, the T/C [16] was 98 % of control and the T/C (endpoint: mean survival time, dose: 50.0 mg/kg/injection, schedule: Q01DX009 (ip), vehicle: suspension in saline) was 100 % of control. For the same molecule, the T/C [17] was 101 % of control, the T/C (endpoint: mean survival time, dose: 100.0 mg/kg/injection, schedule: Q01DX009 (ip), vehicle: suspension in saline) was 105 % of control and the T/C [18] was 98 % of control. The T/C (endpoint: mean survival time, dose: 200.0 mg/kg/injection, schedule: Q01DX009 (ip), vehicle: suspension in saline) was 94 % of control, the T/C (endpoint: mean survival time, dose: 400.0 mg/kg/injection, schedule: Q01DX009 (ip), vehicle: saline) was 103 % of control and the T/C (endpoint: mean survival time, dose: 400.0 mg/kg/injection, schedule: Q01DX009 (ip), vehicle: suspension in saline) was 115 % of control.
`[Cl][Pt+2][Cl].[NH-]C1CCC1[NH-]` (stereo unspecified) was tested, and the T/C (endpoint: median survival time, dose: 2.5 mg/kg/injection, schedule: Q04DX003 (ip), vehicle: Klucel (hydroxypropylcellulose) (HPC)) was 111 % of control, the T/C (endpoint: median survival time, dose: 10.0 mg/kg/injection, schedule: Q04DX003 (ip), vehicle: Klucel (hydroxypropylcellulose) (HPC)) was 156 % of control and 158 % of control and the T/C (endpoint: median survival time, dose: 20.0 mg/kg/injection, schedule: Q04DX003 (ip), vehicle: Klucel (hydroxypropylcellulose) (HPC)) was 177 % of control.
`Cc1ccccc1OCC(=O)O` was tested, and the T/C [16] was 104 % of control, the T/C [17] was 101 % of control and the T/C [18] was 93 % of control.
`NC(N)=NOCC[C@@H](N)C(=O)O` was tested, and the T/C (endpoint: median survival time, dose: 25.0 mg/kg/injection, schedule: Q01DX009 (ip), vehicle: saline) was 102 % of control, the T/C (endpoint: median survival time, dose: 50.0 mg/kg/injection, schedule: Q01DX009 (ip), vehicle: saline) was 101 % of control and the T/C (endpoint: median survival time, dose: 100.0 mg/kg/injection, schedule: Q01DX009 (ip), vehicle: saline) was 98 % of control. For the same molecule, the T/C (endpoint: median survival time, dose: 200.0 mg/kg/injection, schedule: Q01DX009 (ip), vehicle: saline) was 103 % of control, the T/C (endpoint: median survival time, dose: 400.0 mg/kg/injection, schedule: Q01DX009 (ip), vehicle: saline) was 102 % of control and the T/C (endpoint: median survival time, dose: 500.0 mg/kg/injection, schedule: Q01DX001 (ip), vehicle: saline) was 97 % of control. For the same molecule, the T/C (endpoint: median survival time, dose: 750.0 mg/kg/injection, schedule: Q01DX001 (ip), vehicle: saline) was 96 % of control, the T/C (endpoint: median survival time, dose: 1000.0 mg/kg/injection, schedule: Q01DX001 (ip), vehicle: saline) was 84 % of control and the T/C (endpoint: median survival time, dose: 2500.0 mg/kg/injection, schedule: Q01DX001 (ip), vehicle: saline) was 97 % of control.
`CCOc1ccc(Nc2cc(=O)[nH]c(=O)[nH]2)cc1` was tested, and the T/C [1] was 95 % of control, the T/C [2] was 93 % of control and the T/C [3] was 95 % of control.
In the case of `Cc1cc(=O)cc(C(=O)O)o1`, the T/C [13] is reported as 107 % of control, the T/C [14] is reported as 95 % of control and the T/C [15] is reported as 93 % of control.
In the case of `O=S(=O)(Nc1cc(N2CCCCC2)c(NS(=O)(=O)c2ccccc2)cc1N1CCCCC1)c1ccccc1`, the T/C [10] is reported as 88 % of control, the T/C [11] is reported as 98 % of control and the T/C [12] is reported as 90 % of control.
In the case of `Cc1ccc(NC(=O)Oc2ccc(Br)cc2Br)c([N+](=O)[O-])c1`, the T/C (endpoint: mean survival time, dose: 50.0 mg/kg/injection, schedule: Q04DX003 (ip), vehicle: saline with Tween-80) is reported as 106 % of control, the T/C [5] is reported as 104 % of control and the T/C [7] is reported as 96 % of control. The T/C [9] was 100 % of control, the T/C (endpoint: median survival time, dose: 100.0 mg/kg/injection, schedule: Q01DX009 (ip), vehicle: saline with Tween-80) was 98 % of control and the T/C (endpoint: median survival time, dose: 200.0 mg/kg/injection, schedule: Q01DX009 (ip), vehicle: saline with Tween-80) was 100 % of control. For the same molecule, the T/C (endpoint: median survival time, dose: 400.0 mg/kg/injection, schedule: Q01DX009 (ip), vehicle: saline with Tween-80) was 105 % of control and the T/C (endpoint: median survival time, dose: 800.0 mg/kg/injection, schedule: Q01DX009 (ip), vehicle: saline with Tween-80) was 101 % of control.
In the case of `CC(=O)NC1CCC(C(C)C)CC1` (stereo unspecified), the T/C (endpoint: mean survival time, dose: 50.0 mg/kg/injection, schedule: Q01DX001 (ip), vehicle: saline with Tween-80) is reported as 102 % of control.
`CCOC(=O)COc1ccc(OC)cc1C=O` was tested, and the T/C [1] was 93 % of control, the T/C [2] was 93 % of control and the T/C [3] was 97 % of control.
For `COc1cc(Cl)ccc1NC(=O)OCCOc1ccc(Cl)cc1`, the T/C [19] was 91 % of control, the T/C [4] was 88 % of control and the T/C [6] was 91 % of control.
In the case of `C=C(C)C(=O)OCCO` (tested in a mixture with another compound), the T/C [4] is reported as 106 % of control, the T/C [5] is reported as 98 % of control and the T/C [6] is reported as 101 % of control. The T/C [7] was 98 % of control, the T/C [8] was 100 % of control and the T/C [9] was 100 % of control.
For `COC1OC(COC(c2ccccc2)(c2ccccc2)c2ccccc2)C(OC)C(OC)C1NC(C)=O` (stereo unspecified), the T/C [10] was 91 % of control, the T/C [11] was 96 % of control and the T/C [12] was 96 % of control.
In the case of `CSc1nc(Cl)cc(/N=C/N(C)C)n1`, the T/C [4] is reported as 102 % of control and the T/C [6] is reported as 98 % of control.
With `CC(=O)Nc1c(C#N)c(C#N)nn1C` the T/C (endpoint: mean survival time, dose: 50.0 mg/kg/injection, schedule: Q04DX002 (ip), vehicle: saline with Tween-80) was 98 % of control, the T/C (endpoint: mean survival time, dose: 100.0 mg/kg/injection, schedule: Q04DX002 (ip), vehicle: saline with Tween-80) was 106 % of control and the T/C (endpoint: mean survival time, dose: 200.0 mg/kg/injection, schedule: Q04DX002 (ip), vehicle: saline with Tween-80) was 102 % of control.
In the case of `CCOC(=O)CC1(C)C(=O)NC(=O)N1C(C)=O` (stereo unspecified), the T/C [1] is reported as 105 % of control, the T/C [4] is reported as 103 % of control and the T/C [2] is reported as 97 % of control. For the same molecule, the T/C [6] was 103 % of control, the T/C [3] was 94 % of control and the T/C [8] was 116 % of control.
For `c1cnc2c(c1)ccc1ncccc12`, the T/C (endpoint: mean survival time, dose: 12.5 mg/kg/injection, schedule: Q01DX009 (ip), vehicle: saline with Tween-80) was 91 % of control, the T/C (endpoint: mean survival time, dose: 25.0 mg/kg/injection, schedule: Q01DX009 (ip), vehicle: saline with Tween-80) was 109 % of control and the T/C [19] was 96 % of control.
